# Experimental data from patent US20240252476A1, “LPA1 ANTAGONISTS FOR TREATING INTERSTITIAL LUNG DISEASE” (Bristol-Myers Squibb Company, priority 2022, published 2024).
# Assays:
# [1] = Phase 1 multiple ascending dose study (Part B), blood pressure in healthy participants; type: in vivo, human; conditions: MAD, 14-day treatment period
# Description: (§1) The study was performed in 3 parts in 112 healthy male and female participants, including 24 Japanese participants. Female participants were to be not of childbearing potential. The present study was designed to evaluate the safety and tolerability, PK, and exploratory PD of an oral suspension of Compound A. Parts A and B (Cohort B1 only) enrolled healthy participants and was conducted at a site in The Netherlands and Part B (Cohort B2 to B5) enrolled healthy non-Japanese participants and was conducted at a site in the United Kingdom (UK). Part C enrolled healthy Japanese participants and was conducted at the same site in the UK.
# Part B was a MAD study in a planned number of 6 sequential dose escalation cohorts (10 mg QD, 30 mg QD, 30 mg BID, 60 mg BID, 125 mg BID, and ≤250 mg BID) of 8 healthy participants (6 active+2 placebo) each, under fasted conditions. However, Cohort B6 (≤250 mg BID) was cancelled because sufficient safety and PK data had been obtained at doses up to 125 mg BID. […]
# Physical examinations, vital sign measurements (including orthostasis testing in Cohort A6, Cohort B3 to B5, and C1 to C3 at selected time points), 12-lead electrocardiogram (ECG), and clinical laboratory evaluations were performed at selected times throughout the study. […] Participants were closely monitored for adverse events (AEs). […]
# participants with IPF = assay: Phase 2 study, IPF cohort: efficacy (ppFVC, FVC); type: in vivo, human; conditions: for Rate of change in ppFVC over 26 weeks: 60-mg arm
# Description: A total of 278 participants with IPF were randomized and 276 participants were treated as of theinal analyses data cut-off (4 Aug. 2022). Male and female participants ≥40 years of age with IPF and percent predicted forced vital capacity (ppFVC) ≥40% and percent predicted DLCO (ppDLCO) ≥25%; diagnosed within 7 years of screening; having a centrally-read chest HRCT obtained at screening that was consistent with UIP or probable UIP, or having a lung biopsy consistent with UIP were eligible to enter the study. The mean baseline ppFVC for all subjects was 76.5%. In the primary IPF cohort, participants were randomized (1:1:1) to receive 30 mg or 60 mg Compound A or placebo (PBO) twice daily for 26 weeks. Participants were stratified by standard of care (SoC) IPF therapy (pirfenidone versus nintedanib versus none) and region (Japan versus Rest of World) at randomization.
# The primary objective of the study was to determine the rate of change in ppFVC from baseline to Week 26. The primary objective was evaluated with a two estimand framework to handle the intercurrent event of dose reduction to 10 mg BID or matching PBO when pre-specified low BP criteria is met. The primary estimand is adopted to estimate treatment effect when dose reduction is implemented. The supplementary estimand is adopted to estimate the effect of treatment without dose reduction.
# Analysis Strategy: The primary estimand was to evaluate the efficacy of Compound A at 30 mg or 60 mg twice daily, compared to PBO in IPF participants who met the enrollment criteria, with or without use of SoC. The rate of decline in ppFVC (%) from baseline to Week 26 was compared using the difference between each dose and PBO as a population level summary regardless of dose reduction or treatment discontinuation for any reason (treatment policy strategy).
# Analysis Strategy: The supplementary estimand for the primary objective is to evaluate the efficacy of Compound A at 30 mg or 60 mg twice daily without dose reduction, compared to the PBO in IPF subjects who met the enrollment criteria, with or without use of SoC. The rate of decline in ppFVC (%) from baseline to Week 26 has been compared using the difference between each dose and PBO as a population level summary regardless of treatment discontinuation for any reason (treatment policy strategy). In the event of dose reduction, data collected after dose reduction will not be considered relevant to the treatment effect of interest and therefore, will be treated as missing (while-on-treatment strategy).
# [2] = Phase 1 multiple ascending dose study (Part C), blood pressure in healthy Japanese participants; type: in vivo, human
# Description: as §1
# Part C was a MAD study in 3 sequential dose escalation cohorts (30 mg BID, 60 mg BID, and 90 mg BID) of 8 healthy Japanese participants (6 active+2 placebo) each. Eligible participants in Cohorts C1 to C3 received study drug (Compound A or placebo) administered orally for 14 days.
# Physical examinations, vital sign measurements (including orthostasis testing in Cohort A6, Cohort B3 to B5, and C1 to C3 at selected time points), 12-lead electrocardiogram (ECG), and clinical laboratory evaluations were performed at selected times throughout the study. In addition, Holter monitoring was performed for the first 24 hours post dose on Day 1 in Part A (not in FE/pH cohort), and also for the first 24 hours post dose on Day 1 and Day 14 in Parts B and C. Participants were closely monitored for adverse events (AEs). Blood samples were collected for up to 14 days (follow-up visit) after (last) study drug administration for PK analysis. In addition, blood and urine were collected for exploratory biomarker assessments and for biobanking of samples for potential analyses. Urine was collected for potential PK analysis for up to 96 hours after a single dose of Compound A or placebo was administered in the SAD part, and for up to 24 hours after the first (morning) dose of study drug on Day 1 and for up to 24 hours after the last (morning) dose of study drug on Day 14 in the MAD parts.
# participants with PPF = assay: Phase 2 study, PPF cohort: efficacy (ppFVC, FVC); type: in vivo, human; conditions: for Relative reduction: 60 mg v placebo
# Description: (§2) A total of 123 participants with PPF were randomized. Participants (age ≥21 years) were randomized (1:1:1) to receive 30 mg or 60 mg Compound A or PBO twice daily for 26 weeks. […] Immunosuppressive medications (mycophenolate mofetil, mycophenolic acid, azathioprine and/or tacrolimus) were permitted only if dosing is stable for ≥6 months prior to screening. If receiving antifibrotic agents pirfenidone or nintedanib, patients had to receive a stable dosage for ≥3 months prior to screening and during the screening period; if not receiving pirfenidone or nintedanib, patients had to be naive to both drugs or not have received either 4 weeks prior to Day 1. A total of 47 (38.2%) subjects were receiving antifibrotic treatment (with or without immunosuppression therapy). Of those subjects, 34 were being treated with nintedanib and 13 with pirfenidone. Participants were stratified by usual interstitial pneumonia (UIP) pattern (presence versus absence) and background therapy (antifibrotics +/−ILD-targeted immunosuppression versus ILD-targeted immunosuppression alone versus none).UIP pattern was present in 52% of subjects and unclassifiable ILD was he most common disease categorization.
# The study was not powered to detect statistical significance (no formal testing). No target effect size was defined in the study design. There were two estimand approaches for analysis:
# Treatment Policy: Effect of treatment with dose reduction as part of treatment regimen.
# While-On Treatment: Effect of treatment without dose reduction.
# The main efficacy endpoint, rate of FVC decline (in […]) from baseline to wk-26 in the PPF cohort, was estimated using a linear mixed-effects model utilizing all FVC timepoints. It was analyzed under a primary estimand (utilizing all data, treatment policy strategy), and under supplementary estimand (utilizing all data up to the point of dose reduction, while-on-treatment strategy). Analysis was performed in the overall population as well as in sub-groups by 1) background anti-fibrotic treatment or not 2) UIP radiographic pattern (presence or not). The mean baseline ppFVC was 66.700 for the PPF cohort.
# [3] = Phase 2 study, PPF cohort: safety and blood pressure reduction criteria; type: in vivo, human
# Description: as §2
# Patient is experiencing any of the following, confirmed by retest within 15 minutes: • Seated systolic blood pressure <85 mmHg • Seated diastolic blood pressure <55 mmHg • Orthostatic hypotension
# Patient is experiencing symptoms that, in the investigator's opinion, could be associated with a reduction in blood pressure and is also experiencing at least one of the following, confirmed by retest within 15 minutes: • Seated systolic blood pressure <100 mmHg or seated diastolic blood pressure <60 mmHg • Decrease of seated systolic blood pressure of ≥20 mmHg from the previous visit or decrease of seated diastolic blood pressure of ≥10 mmHg from the previous visit • Orthostatic hypotension • Orthostatic tachycardia
# [4] = Effect of single and multiple ascending doses of Compound B on blood pressure; type: in vivo
# Text: and is described in U.S. Patent Application Publication No. 2010/0311799. Single ascending dose of Compound B caused a drop in blood pressure starting ˜1.25 hr post dose (FIG. 5).
# patients with IPF = conditions: cited from earlier work
# patients with PPF = conditions: 52-week study period; cited from earlier work
smiles,measurement,setting,value
"CCCN(C)C(=O)OCc1c(-c2ccc(O[C@H]3CCC[C@H](C(=O)O)C3)c(C)n2)nnn1C [Compound A, (1S,3S)-3-((2-methyl-6-(1-methyl-5-(((methyl(propyl)carbamoyl)-oxy)methyl)-1H-1,2,3-triazol-4-yl)pyridin-3-yl)oxy)cyclohexane-1-carboxylic acid]",Magnitude of BP reductions with repeated dosing,[1],no clear changes in the magnitude of BP reductions with repeated dosing
same,Treatment response vs PBO (rate of decline of ppFVC and FVC),"participants with IPF; 60 mg BID, Week 26, overall population",favorable treatment responses
same,Relative treatment benefit vs PBO (ppFVC),"participants with IPF; 60 mg BID, primary estimand, not on background SoC",113%
same,Relative treatment benefit vs PBO (ppFVC),"participants with IPF; 60 mg BID, primary estimand, on background SoC",39%
same,Relative treatment benefit vs PBO (ppFVC),"participants with IPF; 60 mg BID, supplementary estimand, not on background SoC",123%
same,Relative treatment benefit vs PBO (ppFVC),"participants with IPF; 60 mg BID, supplementary estimand, on background SoC",44%
same,Rate of change in ppFVC over 26 weeks,participants with IPF; treatment policy strategy,−1.2%
same,Rate of change in ppFVC over 26 weeks,participants with IPF; while-on-treatment strategy,−1.1%
same,"Treatment difference in rate of change in ppFVC, 60-mg arm vs placebo",participants with IPF; treatment policy strategy,1.4%
same,"Treatment difference in rate of change in ppFVC, 60-mg arm vs placebo",participants with IPF; while-on-treatment strategy,1.8%
same,"DBP, Baseline",[2]; Japanese MAD 30 mg BID (C1),8.8 ± 5.12 mmHg
same,"DBP, Reduction",[2]; Japanese MAD 30 mg BID (C1),72.2 ± 3.87 mmHg
same,"DBP, Baseline",[2]; Japanese MAD 60 mg BID (C2),8.2 ± 10.40 mmHg
same,"DBP, Reduction",[2]; Japanese MAD 60 mg BID (C2),73.8 ± 6.18 mmHg
same,"DBP, Baseline",[2]; Japanese MAD 90 mg BID,8.0 ± 8.22 mmHg
same,"DBP, Reduction",[2]; Japanese MAD 90 mg BID,70.7 ± 7.58 mmHg
same,Dose dependence of BP reduction,[2]; Japanese MAD cohorts,no clear Compound A dose-dependent BP reduction trend
same,Relative reduction,participants with PPF; Anti-fibrotic subgroup,75%
same,Relative reduction,participants with PPF; No antifibrotic subgroup,63%
same,Relative reduction,participants with PPF; Non UIP subgroup,84%
same,Relative reduction,participants with PPF; UIP subgroup,54%
same,Relative reduction,participants with PPF; overall,69%
same,Rate of change in ppFVC over 26 weeks,"participants with PPF; 30-mg arm, treatment policy strategy",−2.7%
same,Rate of change in ppFVC over 26 weeks,"participants with PPF; 30-mg arm, while-on-treatment strategy",−2.5%
same,Rate of change in ppFVC over 26 weeks,"participants with PPF; 60-mg arm, treatment policy strategy",−1.1%
same,Rate of change in ppFVC over 26 weeks,"participants with PPF; 60-mg arm, while-on-treatment strategy",−1.3%
same,Treatment difference 60 mg v placebo in rate of decline in ppFVC,"participants with PPF; Non UIP subgroup, baseline to Week 26",3.80
same,"Treatment difference in rate of change in ppFVC, 60-mg vs placebo",participants with PPF; treatment policy strategy,3.2%
same,"Treatment difference in rate of change in ppFVC, 60-mg vs placebo",participants with PPF; while-on-treatment strategy,2.9%
same,"Low BP thresholds (""events"")",[3]; 30 mg,30%
same,Deaths due to TEAEs,[3]; 30 mg (n = 40),0 no.
same,Dizziness,[3]; 30 mg (n = 40),0 no.
same,Hypertension,[3]; 30 mg (n = 40),0 no.
same,Deaths due to TEAEs,[3]; 60 mg (n = 42),0 no.
same,Discontinuations due to TEAEs,[3]; 60 mg (n = 42),0 no.
same,Dyspnea,[3]; 60 mg (n = 42),0 no.
same,Rash,[3]; 60 mg (n = 42),0 no.
same,Vomiting,[3]; 60 mg (n = 42),0 no.
"Cc1noc(-c2ccc(-c3ccc(C4(C(=O)O)CC4)cc3)cc2)c1NC(=O)O[C@H](C)c1ccccc1 [Compound B, sodium (R)-1-(4′-(3-methyl-4-(((1-phenylethoxy)carbonyl)amino)isoxazol-5-yl)-[1,1′-biphenyl]-4-yl)cyclopropane-1-carboxylate]",Normalization of blood pressure,[4]; multiple days of dosing (FIG. 6),~3 days
same,Start of drop in blood pressure post dose,[4]; single ascending dose (FIG. 5),~1.25 h
COC(=O)c1ccc2c(c1)NC(=O)/C2=C(\Nc1ccc(N(C)C(=O)CN2CCN(C)CC2)cc1)c1ccccc1 [nintedanib],Decline in lung function,patients with IPF,significantly reduce the decline in lung function
same,Progression of lung fibrosis vs placebo (annual rate of decline in FVC),patients with PPF,slower progression of lung fibrosis than those who received placebo
Cc1ccc(=O)n(-c2ccccc2)c1 [pirfenidone],Decline in lung function,patients with IPF,significantly reduce the decline in lung function
